# Source: ChEMBL document CHEMBL1137558, “Synthesis and biological evaluation of new 2-arylcarbonyl-3-trifluoromethylquinoxaline 1,4-di-N-oxide derivatives and their reduced analogues” (2007)
# Tests used:
# CCRF-CEM = test: Anticancer activity against CCRF-CEM cells; assay type: functional; settings: Homo sapiens
# K562 = test: Anticancer activity against K562 cells; assay type: functional; settings: Homo sapiens
# MOLT-4 = test: Anticancer activity against MOLT4 cells; assay type: functional; settings: Homo sapiens
# SR = test: Anticancer activity against SR cells; assay type: functional; settings: Homo sapiens
# [1] = Anticancer activity against leukemia cells; assay type: functional; settings: Homo sapiens, Leukemia cell
# [2] = Anticancer activity against nonsmall lung cancer cells; assay type: functional; settings: Homo sapiens, Cancer cell lines
# [3] = Anticancer activity against colon cancer cells; assay type: functional; settings: Homo sapiens, Cancer cell lines
# [4] = Anticancer activity against CNS cancer cells; assay type: functional; settings: Homo sapiens, Cancer cell lines
# [5] = Anticancer activity against melanoma cells; assay type: functional; settings: Homo sapiens, Melanoma cell
# [6] = Anticancer activity against ovarian cancer cells; assay type: functional; settings: Homo sapiens, Cancer cell lines
# [7] = Anticancer activity against renal cancer cells; assay type: functional; settings: Homo sapiens, Cancer cell lines
# [8] = Anticancer activity against prostate cancer cells; assay type: functional; settings: Homo sapiens, Cancer cell lines
# [9] = Anticancer activity against breast cancer cells; assay type: functional; settings: Homo sapiens, Cancer cell lines
# [10] = Anticancer activity against human NCI60 cells; assay type: functional; settings: for CC50: read-out: LC50 (the source's name)
# NCI-H460 = test: Growth inhibition of NCI-H460 cells at 100 uM after 48 hrs; assay type: functional, Homo sapiens; parameters: scale not given: the % may be the effect or the level left
# MCF7 = test: Growth inhibition of MCF7 cells at 100 uM after 48 hrs; assay type: functional, Homo sapiens; parameters: scale not given: the % may be the effect or the level left
# SF-268 = test: Growth inhibition of SF268 cells at 100 uM after 48 hrs; assay type: functional, Homo sapiens; parameters: scale not given: the % may be the effect or the level left
# HL-60 = test: Anticancer activity against HL60 cells; assay type: functional; settings: Homo sapiens
SMILES,GI50 (CCRF-CEM) [nM],GI50 (K562) [nM],GI50 (MOLT-4) [nM],GI50 (SR) [nM],GI50 [1] [nM],GI50 [2] [nM],GI50 [3] [nM],GI50 [4] [nM],GI50 [5] [nM],GI50 [6] [nM],GI50 [7] [nM],GI50 [8] [nM],GI50 [9] [nM],GI50 [10] [nM],TGI [10] [nM],CC50 [10] [nM],Activity (NCI-H460) [%],Activity (MCF7) [%],Activity (SF-268) [%],GI50 (HL-60) [nM]
O=C(c1cccs1)c1c(C(F)(F)F)[n+]([O-])c2cc(Cl)c(Cl)cc2[n+]1[O-],< 10,< 10,< 10,< 10,20,2040,590,670,940,1160,1600,790,790,740,3020,11000,–,–,–,–
COc1ccc2c(c1)[n+]([O-])c(C(=O)c1ccc3ccccc3c1)c(C(F)(F)F)[n+]2[O-],–,–,–,–,–,800,–,–,–,–,–,–,–,–,–,–,<32,<32,<32,–
O=C(c1ccco1)c1c(C(F)(F)F)[n+]([O-])c2ccc(F)cc2[n+]1[O-],–,–,–,–,300,3130,1060,2350,1560,2030,2410,2600,1330,1620,4270,15800,–,72,82,–
O=C(c1cccs1)c1c(C(F)(F)F)[n+]([O-])c2cc(C(F)(F)F)ccc2[n+]1[O-],70,–,20,20,30,300,150,180,330,200,240,150,180,180,470,1480,–,–,–,< 10
O=C(c1ccco1)c1c(C(F)(F)F)nc2cc(C(F)(F)F)ccc2[n+]1[O-],–,–,–,–,43600,47700,85400,24400,80600,40400,34600,44700,38500,46800,89100,> 100000,–,–,–,–
O=C(c1ccc2ccccc2c1)c1c(C(F)(F)F)[n+]([O-])c2ccc(F)cc2[n+]1[O-],–,–,–,–,440,1540,740,1610,1120,1200,1480,1620,1700,1150,2820,8320,–,–,–,–
O=C(c1ccco1)c1c(C(F)(F)F)[n+]([O-])c2ccc(C(F)(F)F)cc2[n+]1[O-],–,–,–,–,210,760,570,910,1110,720,430,420,570,600,1480,5010,–,–,–,–
O=C(c1ccco1)c1c(C(F)(F)F)[n+]([O-])c2ccc(Cl)cc2[n+]1[O-],–,–,–,–,190,360,210,770,490,560,200,110,280,320,2570,10000,–,–,–,–
